Data from ChEMBL document CHEMBL3046840, “Cyclobutane carboxamide inhibitors of fungal melanin: biosynthesis and their evaluation as fungicides” (Bioorg Med Chem, 2000).
pKi: −log10 of the molar value.

Molecular target: T1, Scytalone dehydratase (Magnaporthe oryzae (strain 70-15 / FGSC 8958) (Rice blast fungus)(Pyricularia oryzae), UniProt P56221)
T1 sequence (P56221 whole entry): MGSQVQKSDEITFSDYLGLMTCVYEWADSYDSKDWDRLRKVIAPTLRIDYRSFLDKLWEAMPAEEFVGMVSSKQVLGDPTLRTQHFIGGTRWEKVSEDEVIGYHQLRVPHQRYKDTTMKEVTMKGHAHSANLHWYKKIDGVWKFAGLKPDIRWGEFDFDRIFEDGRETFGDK

Point of comparison: `C[C@@H](NC(=O)[C@]1(C)C[C@](Cl)(CCl)C1)c1ccc(Br)cc1`, pKi 10.57. Against it:
- C[C@H](COc1cc(F)ccc1F)NC(=O)[C@]1(C)C[C@](C)(Cl)C1 — 1.19 log units lower, 9.38
- C[C@@H](NC(=O)C1(Cl)CC(C)(Cl)C1)c1ccc(Br)cc1 (mixture of isomers) — 1.06 log units lower, 9.51
- CC[C@]1(O)C[C@@](C)(C(=O)N[C@H](C)c2ccc(Br)cc2)C1 — 2.08 log units lower, 8.49
- CC[C@]1(C(=O)N[C@H](C)c2ccc(Br)cc2)C[C@@](C)(Cl)C1 — within 0.2 log units, 10.68
- COc1cc(Br)ccc1C(C)NC(=O)[C@]1(C)C[C@](C)(Cl)C1 (mixture of isomers) — within 0.2 log units, 10.52
- C[C@@H](NC(=O)C1(Cl)CC(Cl)(Cl)C1)c1ccc(Br)cc1 — 1.22 log units lower, 9.35
- C[C@@H](NC(=O)[C@]1(C)C[C@@](Cl)(CCl)C1)c1ccc(Br)cc1 — 0.23 log units higher, 10.80
- C[C@@H](NC(=O)[C@H]1C[C@@](C)(Cl)C1)c1ccc(Br)cc1 — 3.21 log units lower, 7.36
- C#C[C@]1(O)C[C@@](C)(C(=O)N[C@H](C)c2ccc(Br)cc2)C1 — 3.02 log units lower, 7.55
- CC(C)C(C)(C#N)NC(=O)[C@H](C)Oc1ccc(Cl)cc1Cl (stereo not given in full) — 0.68 log units lower, 9.89
- C[C@@H](NC(=O)[C@]1(C)C[C@@](C)(O)C1)c1ccc(Br)cc1 — 2.77 log units lower, 7.80
- C[C@@H](NC(=O)[C@]1(C(F)(F)F)C[C@@](C)(Cl)C1)c1ccc(Cl)cc1Cl — 0.39 log units higher, 10.96
- C[C@@H](NC(=O)C1CCC1)c1ccc(Br)cc1 — 4.29 log units lower, 6.28
- C[C@@H](NC(=O)[C@]1(C(F)(F)F)C[C@@](C)(Cl)C1)c1ccc(Br)cc1 — 1.20 log units lower, 9.37
- C[C@@H](NC(=O)[C@]1(C)C[C@](C)(Cl)C1)c1ccc2ccccc2c1 — 0.23 log units higher, 10.80
- C[C@@H](NC(=O)[C@]1(C)C[C@](C)(Cl)C1)c1ccc(Cl)cc1Cl — 0.35 log units higher, 10.92
- C[C@@H](NC(=O)[C@]1(C)C[C@](C)(Cl)C1)c1ccc(Br)cc1 — 0.57 log units lower, 10.00
- C[C@H](COc1ccccc1F)NC(=O)[C@]1(C(F)(F)F)C[C@@](C)(Cl)C1 — 1.11 log units lower, 9.46
- C[C@@H](NC(=O)C(C#N)C(C)(C)C)c1ccc(Cl)cc1Cl (stereo not given in full) [DICLOCYMET] — within 0.2 log units, 10.44
- C[C@@H](NC(=O)[C@]1(C)C[C@](C)(Cl)C1)c1cccc2ccccc12 — 2.08 log units lower, 8.49
- C[C@H](COc1cc(F)ccc1Cl)NC(=O)[C@]1(C)C[C@](C)(Cl)C1 — 0.33 log units lower, 10.24
- C[C@@H](NC(=O)C1(C)CC(F)(F)C1)c1ccc(Br)cc1 — 2.35 log units lower, 8.22
- C[C@@H](NC(=O)[C@]1(C)C[C@](C)(O)C1)c1ccc(Br)cc1 — 4.25 log units lower, 6.32
- C[C@@H](NC(=O)[C@]1(C(F)(F)F)C[C@@](C)(Cl)C1)c1ccc(Cl)cc1 — 0.40 log units lower, 10.17
